pKd: −log10 of the molar value. Entries after “also recorded” stand apart in the source; their conditions may differ. Where a SMILES comes first, the peptide text is derived from it. Bridges are numbered along the chain shown (N, C = ends). [ ]: non-standard residue; d: D form. R8 = C=CCCCCCC[C@@](C)(N)C(=O)O; S5 = C=CCCC[C@](C)(N)C(=O)O; βAla = NCCC(=O)O
Key:
[1] = target: T1, His-tagged Catalytic Domain of JAK2 (residues 826–1132) (Homo sapiens, UniProt O60674); test: MicroScale Thermophoresis (MST) binding to JAK2 catalytic domain; details: RED-tris-NTA labelled His-JAK2 catalytic domain, 25 °C, 50 mM Tris-HCl, 150 mM NaCl, 0.05% Brij35, 1 mM DTT, 10% glycerol, 15% TFE, pH 7.5, Langmuir isotherm fit
T1 construct: His-tagged Catalytic Domain of JAK2 (residues 826–1132); purchased Carna Biosciences
T1 sequence (O60674 826-1132): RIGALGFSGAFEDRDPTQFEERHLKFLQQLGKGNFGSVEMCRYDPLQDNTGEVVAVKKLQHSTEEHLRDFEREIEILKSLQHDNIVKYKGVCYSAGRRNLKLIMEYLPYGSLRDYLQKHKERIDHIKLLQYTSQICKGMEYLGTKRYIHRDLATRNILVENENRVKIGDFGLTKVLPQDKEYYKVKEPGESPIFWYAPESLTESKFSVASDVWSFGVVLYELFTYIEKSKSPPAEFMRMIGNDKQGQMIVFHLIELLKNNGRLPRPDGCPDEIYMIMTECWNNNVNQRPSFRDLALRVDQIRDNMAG
Experimental: MST experiments were carried out with a Monolith NT 115 system (NanoTemper Technologies, München, Germania) equipped with 40% LED and 40% IR-laser power. […] The protein concentration was adjusted to 200 nM in labeling buffer (Nano Temper Technologies), while the dye concentration was set to 100 nM. Equal volumes (100 μL) of protein and fluorescent dye solutions were mixed and incubated at room temperature in the dark for 30 min. KIRCONG chim analogues were used in the following concentrations: KIRCONG amide 459 μM, KIRCONG disulfide 470 μM, KIRCONG i/i+5 525 μM, and KIRCONG i/i+7 585 μM in labeling buffer. Standard capillaries were employed for analysis, at 25 °C in 50 mM Tris-HCl, 150 mM NaCl, 0.05% Brij35, 1 mM DTT, 10% glycerol, 15% TFE buffer at pH 7.5, as already reported. The equation implemented by the software MO-S002 MO Affinity Analysis, used for fitting data at different concentrations, is based on Langmuir binding isotherm.
To evaluate the ability of KIRCONG analogues to recognize JAK2 catalytic domain, in vitro MST experiments were carried out (Figure 5), keeping JAK2 concentration constant and increasing ligands’ concentrations.

[2] = Serum stability in fetal bovine serum; type: in vitro ADME; details: 37 °C; for improvement of stability to proteases after 24 h: 25% FBS, 24 h of analysis, compared with the linear peptide; for metabolised at 3 h, 500 µM: read-out: degraded after 3 h of incubation
Experimental: KIRCONG analogues (~1 mg/mL, 500 μM on average), were incubated with fetal bovine serum (FBS) at 25% (w/v) at 37 °C as previously described. At the following time points: 0, 3, 17, 20, 23 and 42 h, 50 µL aliquots of the solutions were mixed with 50 µL of 15% trichloroacetic acid (TCA) to allow the precipitation of serum proteins, they were stored at −20 °C for at least 15 min. After centrifugation (13,000 rpm for 15 min) the supernatants were recovered. Samples were analyzed by RP-HPLC on a HPLC LC-4000 series (Jasco) equipped with UV detector using a C18-Kinetek column from Phenomenex (Milan, Italy), by employing a gradient from 5 to 70% of B (acetonitrile 0.1% TFA) versus A (water 0.1% TFA) in 20 min. Peptide compounds were detected by recording the absorbance at 210 nm and percentages were quantified by assuming 100% their peak areas at t = 0. All stability tests were performed at least in triplicates and reported data are averaged values.
To evaluate if introduced chemical modifications in KIRCONG analogues influence their stabilities to proteolytic degradation, pure compounds were incubated with fetal bovine serum (FBS) and the decrease of chromatographic peaks was followed during time In Figure 4, the area percentages of new derivatives of KIRCONG chim versus time are reported. After 3 h of incubation, KIRCONG chim is degraded by 30% while KIRCONG disulfide of 20% and others less than 10%.
Figure 4 Serum stability assay of KIRCONG chim derivatives. The serum stability was evaluated by incubation in 25% FBS for 42 h. Residual peptide amount is expressed as the percentage of the initial amount versus time.

[3] = Solubility observations in TFE/aqueous mixtures (CD and NMR samples); type: physicochemical
Experimental: CD spectroscopy experiments were carried out by employing a Jasco J-815 spectropolarimeter (JASCO, Tokyo, Japan), at room temperature in the spectral range 190–260 nm and spectra are averaged over two scans, to which blanks were subtracted. CD signals were converted to mean residue ellipticity with deg* cm^2*dmol^−1*res^−1 as units. Scan speed value was 20 nm/min, band width 2.0 nm, resolution 0.2 nm, sensitivity 50 mdeg and response 4 s. Samples were prepared by dilution of freshly prepared stock solutions in 100% TFE (2,2,2-Trifluoroethanol) (1 mM on average). In the CD samples compound concentrations were 100 μM. Spectra were acquired in a quartz cuvette with a path-length of 0.1 cm in mixtures TFE/phosphate buffer, 10 mM at pH 7.4 [52].
NMR spectra of KIRCONG i/i+5 and KIRCONG i/i+7 stapled peptides were registered at 25 °C on a Varian Unity Inova 600 MHz spectrometer provided with a cold probe. […] NMR spectra for KIRCONG i/i+7 were recorded in H2O/TFE 60/40 v/v (peptide concentration 411 μM, pH 4.65). […] To conduct NMR structural analyses the following 2D [^1H, ^1H] experiments were recorded: TOCSY (Total Correlation Spectroscopy), NOESY (Nuclear Overhauser Enhancement Spectroscopy), ROESY (Rotating Frame Overhauser Enhancement Spectroscopy) and DQFCOSY (Double Quantum-Filtered Correlated Spectroscopy). […]

[4] = 25% (w/v) fetal bovine serum, 25% (w/v) FBS, peptide ~1 mg/mL (500 µM on average), TCA precipitation, RP-HPLC C18, UV 210 nm, peak area vs t = 0, mean of at least triplicates

Row | pKd [1] | metabolised at 3 h, 500 µM [2, 4] [%] | SMILES | improvement of stability to proteases after 24 h [2] | KD [1] | further results
1 | 3.70 | – | CC(C)C[C@@H]1NC(=O)[C@H](CCC(N)=O)NC(=O)[C@H](Cc2ccc(O)cc2)NC(=O)[C@H](CCC(=O)O)NC(=O)[C@H](CO)NC(=O)[C@H](CCCCN)NC(=O)[C@H](CO)NC(=O)[C@H](CO)NC(=O)[C@H](Cc2ccccc2)NC(=O)CCNC(=O)[C@@H](N)CCCCNC(=O)CC[C@@H](C(=O)NCC(=O)O)NC(=O)[C@H]([C@@H](C)O)NC(=O)[C@H](C(C)C)NC(=O)[C@H](C)NC(=O)[C@H](CO)NC(=O)[C@H](Cc2c[nH]c3ccccc23)NC(=O)[C@H](Cc2ccc(O)cc2)NC(=O)[C@H](Cc2ccccc2)NC(=O)CCNC(=O)CCNC1=O [KIRCONG amide] (H-K[βAla]FSSKSEYQL[βAla][βAla]FYWSAVTEG-OH; lactam 1-21) | do not produce a significant improvement of stability | – | –
2 | – | 30 | CC(=O)N[C@@H](CCCCN)C(=O)NCCC(=O)N[C@@H](Cc1ccccc1)C(=O)N[C@@H](CO)C(=O)N[C@@H](CO)C(=O)N[C@@H](CCCCN)C(=O)N[C@@H](CO)C(=O)N[C@@H](CCC(=O)O)C(=O)N[C@@H](Cc1ccc(O)cc1)C(=O)N[C@@H](CCC(N)=O)C(=O)N[C@@H](CC(C)C)C(=O)NCCC(=O)NCCC(=O)N[C@@H](Cc1ccccc1)C(=O)N[C@@H](Cc1ccc(O)cc1)C(=O)N[C@@H](Cc1c[nH]c2ccccc12)C(=O)N[C@@H](CO)C(=O)N[C@@H](C)C(=O)N[C@H](C(=O)N[C@H](C(N)=O)[C@@H](C)O)C(C)C [KIRCONG chim, reference compound] (Ac-K[βAla]FSSKSEYQL[βAla][βAla]FYWSAVT-NH2) | – | – | residual concentration after 42 h ([2]; 25% (w/v) FBS, peptide ~1 mg/mL (500 µM on average), 42 h, TCA precipitation, RP-HPLC C18, UV 210 nm, peak area vs t = 0, mean of at least triplicates): completely degraded
3 | 3.22 | 20 | CC(C)C[C@@H]1NC(=O)[C@H](CCC(N)=O)NC(=O)[C@H](Cc2ccc(O)cc2)NC(=O)[C@H](CCC(=O)O)NC(=O)[C@H](CO)NC(=O)[C@H](CCCCN)NC(=O)[C@H](CO)NC(=O)[C@H](CO)NC(=O)[C@H](Cc2ccccc2)NC(=O)CCNC(=O)[C@@H](N)CSSC[C@@H](C(=O)NCC(=O)O)NC(=O)[C@H]([C@@H](C)O)NC(=O)[C@H](C(C)C)NC(=O)[C@H](C)NC(=O)[C@H](CO)NC(=O)[C@H](Cc2c[nH]c3ccccc23)NC(=O)[C@H](Cc2ccc(O)cc2)NC(=O)[C@H](Cc2ccccc2)NC(=O)CCNC(=O)CCNC1=O [KIRCONG disulfide] (H-C[βAla]FSSKSEYQL[βAla][βAla]FYWSAVTCG-OH; disulfide 1-21) | do not produce a significant improvement of stability | – | –
4 | – | – | CC(C)C[C@H](NC(=O)[C@H](CCC(N)=O)NC(=O)[C@H](Cc1ccc(O)cc1)NC(=O)[C@H](CCC(=O)O)NC(=O)[C@H](CO)NC(=O)[C@H](CCCCN)NC(=O)[C@H](CO)NC(=O)[C@H](CO)NC(=O)[C@@H](N)Cc1ccccc1)C(=O)NCCC(=O)N[C@@]1(C)CCCC=CCCC[C@@](C)(C(=O)N[C@H](C(=O)N[C@H](C(=O)NCC(=O)O)[C@@H](C)O)C(C)C)NC(=O)[C@H](CO)NC(=O)[C@H](Cc2c[nH]c3ccccc23)NC(=O)[C@H](Cc2ccc(O)cc2)NC(=O)[C@H](Cc2ccccc2)NC1=O [KIRCONG i/i+5] (H-FSSKSEYQL[βAla][S5]FYWS[S5]VTG-OH; staple 11-16) | – | did not allow to obtain KD values; also recorded: No binding | remaining at 42 h, 500 µM ([2]; 25% (w/v) fetal bovine serum, 25% (w/v) FBS, peptide ~1 mg/mL (500 µM on average), 42 h, TCA precipitation, RP-HPLC C18, UV 210 nm, peak area vs t = 0, mean of at least triplicates, read-out: residual concentration after 42 h): 85%
5 | – | – | CC(C)C[C@@H]1NC(=O)[C@](C)(NC(=O)[C@H](Cc2ccc(O)cc2)NC(=O)[C@H](CCC(=O)O)NC(=O)[C@H](CO)NC(=O)[C@H](CCCCN)NC(=O)[C@H](CO)NC(=O)[C@H](CO)NC(=O)[C@@H](N)Cc2ccccc2)CCCCCC/C=C/CCC[C@@](C)(C(=O)N[C@H](C(=O)N[C@H](C(=O)NCC(=O)O)[C@@H](C)O)C(C)C)NC(=O)[C@H](CO)NC(=O)[C@H](Cc2c[nH]c3ccccc23)NC(=O)[C@H](Cc2ccc(O)cc2)NC(=O)[C@H](Cc2ccccc2)NC(=O)CCNC1=O [KIRCONG i/i+7] (H-FSSKSEY[R8]L[βAla]FYWS[S5]VTG-OH; staple (E) 8-15) | – | did not allow to obtain KD values; also recorded: No binding | solubility at NMR concentration in 15% TFE ([3]; H2O/TFE 85/15 v/v, NMR peptide concentration 411 µM): poorly soluble; solubility in TFE/phosphate buffer (CD sample) ([3]; TFE/phosphate buffer 10 mM pH 7.4, CD sample concentration 100 µM, diluted from 100% TFE stock): not soluble

Reference: article PMC9031227, “Structure-Activity Relationship Investigations of Novel Constrained Chimeric Peptidomimetics of SOCS3 Protein Targeting JAK2” (Pharmaceuticals, 2022)
